Reference: patent US8263606B2 (Xenon Pharmaceuticals Inc., priority 2008, dated 2012)

What was measured:
sodium channel = experiment: Guanidine influx assay (14C-guanidine radiotracer flux, in vitro); format: cell-based, human or rat; details: guanidine influx assay using a known cell line that expresses a sodium channel; activity level class
Procedure, shortened: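 Cells (human/rat Nav, endogenous or recombinant), ~100,000/well, 20-24 h 37 °C/5% CO2. Wash LNHBSS (150 mM choline Cl, HEPES, glucose). Add cpd + aconitine/14C-guanidine mix, RT. Wash, dry, scintillation count. IC50: 4-PL fit; selectivity as IC50 ratio vs reference channel, e.g. Nav1.5.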

[1] = tested on: inactivated state of the channel of interest (sodium channel); experiment: Electrophysiological assay (whole cell voltage clamp, in vitro); format: cell-based; details: affinity for the inactivated state of the channel of interest
Procedure, shortened: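 Whole-cell voltage clamp at ambient temperature on stably transfected cells; CsF-based pipette, pH 7.4 NaCl bath. Current blockade measured at holding potentials of −120 mV (resting, Kr) and one giving 10% availability (inactivated, Ki), held ≥10 s to equilibrate; apparent Kd calculated from fractional block.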

CYP3A4 = CYP3A4 (Homo sapiens, UniProt P08684); experiment: Cytochrome P450 (CYP450) Inhibition Assay, CYP3A4 (Vivid fluorescence, BOMCC substrate); details: human, P450 Baculosomes (recombinant CYP3A4), probe BOMCC (Vivid substrate)
CYP3A4, sequence (P08684 whole entry): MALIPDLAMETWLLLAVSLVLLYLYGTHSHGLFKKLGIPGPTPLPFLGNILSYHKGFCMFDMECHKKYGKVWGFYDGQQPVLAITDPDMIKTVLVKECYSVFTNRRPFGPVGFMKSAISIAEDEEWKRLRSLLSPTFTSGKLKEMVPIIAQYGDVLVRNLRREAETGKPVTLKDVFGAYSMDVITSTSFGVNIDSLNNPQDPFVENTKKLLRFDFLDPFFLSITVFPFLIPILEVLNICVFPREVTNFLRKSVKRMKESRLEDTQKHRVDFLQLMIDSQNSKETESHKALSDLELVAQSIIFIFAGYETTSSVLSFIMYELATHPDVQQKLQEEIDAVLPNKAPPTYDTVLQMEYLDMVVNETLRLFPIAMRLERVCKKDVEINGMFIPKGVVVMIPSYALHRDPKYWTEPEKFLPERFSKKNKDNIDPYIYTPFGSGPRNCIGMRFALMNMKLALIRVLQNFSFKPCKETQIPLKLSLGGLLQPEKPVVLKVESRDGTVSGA

Nav1.9 and Nav1.7 = format: cell-based, Human
Nav1.4 = Nav1.4 (Cricetulus griseus, UniProt A0A9J7H6F9); format: cell-based, Chinese Hamster
Nav1.4, sequence (A0A9J7H6F9 1-1930): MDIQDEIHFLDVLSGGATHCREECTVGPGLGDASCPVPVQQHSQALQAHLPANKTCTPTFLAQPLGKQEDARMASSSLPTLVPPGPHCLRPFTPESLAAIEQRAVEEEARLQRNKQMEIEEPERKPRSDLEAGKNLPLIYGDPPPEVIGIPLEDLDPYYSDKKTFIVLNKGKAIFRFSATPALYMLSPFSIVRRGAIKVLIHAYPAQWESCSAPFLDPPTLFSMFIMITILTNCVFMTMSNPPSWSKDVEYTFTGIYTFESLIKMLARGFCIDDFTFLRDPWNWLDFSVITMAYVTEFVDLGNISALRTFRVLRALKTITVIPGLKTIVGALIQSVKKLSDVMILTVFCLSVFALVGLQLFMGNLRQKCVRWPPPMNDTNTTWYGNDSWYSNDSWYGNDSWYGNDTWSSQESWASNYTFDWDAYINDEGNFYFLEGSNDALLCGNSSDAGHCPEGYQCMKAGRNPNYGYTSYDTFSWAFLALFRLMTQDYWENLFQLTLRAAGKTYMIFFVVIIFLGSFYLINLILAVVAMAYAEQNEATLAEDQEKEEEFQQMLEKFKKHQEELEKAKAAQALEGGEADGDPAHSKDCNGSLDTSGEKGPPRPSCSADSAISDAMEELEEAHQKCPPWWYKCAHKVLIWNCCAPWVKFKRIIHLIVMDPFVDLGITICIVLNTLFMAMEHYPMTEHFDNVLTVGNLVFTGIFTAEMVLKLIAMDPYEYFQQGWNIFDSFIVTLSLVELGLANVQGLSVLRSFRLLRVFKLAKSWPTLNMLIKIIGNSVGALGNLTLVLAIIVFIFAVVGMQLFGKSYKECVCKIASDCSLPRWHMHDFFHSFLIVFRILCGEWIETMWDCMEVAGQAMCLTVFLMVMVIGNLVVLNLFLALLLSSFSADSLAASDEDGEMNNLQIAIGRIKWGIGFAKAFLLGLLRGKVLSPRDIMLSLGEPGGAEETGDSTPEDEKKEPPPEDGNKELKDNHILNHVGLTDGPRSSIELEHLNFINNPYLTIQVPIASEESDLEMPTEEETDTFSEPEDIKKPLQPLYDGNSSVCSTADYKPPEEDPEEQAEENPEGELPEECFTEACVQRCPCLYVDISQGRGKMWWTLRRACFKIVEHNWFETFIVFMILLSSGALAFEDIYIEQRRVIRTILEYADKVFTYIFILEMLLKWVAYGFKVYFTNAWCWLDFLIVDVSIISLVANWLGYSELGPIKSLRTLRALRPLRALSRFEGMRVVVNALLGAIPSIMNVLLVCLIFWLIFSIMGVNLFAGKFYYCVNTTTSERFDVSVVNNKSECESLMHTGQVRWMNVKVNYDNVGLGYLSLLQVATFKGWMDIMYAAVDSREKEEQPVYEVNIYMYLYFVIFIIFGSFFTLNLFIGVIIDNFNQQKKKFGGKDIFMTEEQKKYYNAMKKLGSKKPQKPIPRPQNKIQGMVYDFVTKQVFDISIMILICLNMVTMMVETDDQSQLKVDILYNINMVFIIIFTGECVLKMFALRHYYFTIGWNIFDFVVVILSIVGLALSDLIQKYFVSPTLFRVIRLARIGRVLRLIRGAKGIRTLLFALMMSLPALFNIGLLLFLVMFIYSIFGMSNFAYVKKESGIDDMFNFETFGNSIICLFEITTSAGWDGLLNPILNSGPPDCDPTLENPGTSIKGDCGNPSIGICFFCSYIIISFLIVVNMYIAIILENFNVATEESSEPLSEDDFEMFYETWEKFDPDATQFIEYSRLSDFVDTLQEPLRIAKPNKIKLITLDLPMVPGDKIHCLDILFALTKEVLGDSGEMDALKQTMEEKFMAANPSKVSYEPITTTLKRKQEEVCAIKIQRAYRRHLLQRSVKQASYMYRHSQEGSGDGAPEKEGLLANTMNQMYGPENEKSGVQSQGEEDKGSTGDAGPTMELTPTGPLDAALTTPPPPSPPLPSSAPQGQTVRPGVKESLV

Nav1.8 = Nav1.8 (Homo sapiens, UniProt Q9Y5Y9); format: cell-based
Nav1.4 and 1.5 = format: cell-based, rat
Nav1.2 = Nav1.2 (Rattus norvegicus, UniProt P04775)
Nav1.2, sequence (P04775 whole entry, looked up): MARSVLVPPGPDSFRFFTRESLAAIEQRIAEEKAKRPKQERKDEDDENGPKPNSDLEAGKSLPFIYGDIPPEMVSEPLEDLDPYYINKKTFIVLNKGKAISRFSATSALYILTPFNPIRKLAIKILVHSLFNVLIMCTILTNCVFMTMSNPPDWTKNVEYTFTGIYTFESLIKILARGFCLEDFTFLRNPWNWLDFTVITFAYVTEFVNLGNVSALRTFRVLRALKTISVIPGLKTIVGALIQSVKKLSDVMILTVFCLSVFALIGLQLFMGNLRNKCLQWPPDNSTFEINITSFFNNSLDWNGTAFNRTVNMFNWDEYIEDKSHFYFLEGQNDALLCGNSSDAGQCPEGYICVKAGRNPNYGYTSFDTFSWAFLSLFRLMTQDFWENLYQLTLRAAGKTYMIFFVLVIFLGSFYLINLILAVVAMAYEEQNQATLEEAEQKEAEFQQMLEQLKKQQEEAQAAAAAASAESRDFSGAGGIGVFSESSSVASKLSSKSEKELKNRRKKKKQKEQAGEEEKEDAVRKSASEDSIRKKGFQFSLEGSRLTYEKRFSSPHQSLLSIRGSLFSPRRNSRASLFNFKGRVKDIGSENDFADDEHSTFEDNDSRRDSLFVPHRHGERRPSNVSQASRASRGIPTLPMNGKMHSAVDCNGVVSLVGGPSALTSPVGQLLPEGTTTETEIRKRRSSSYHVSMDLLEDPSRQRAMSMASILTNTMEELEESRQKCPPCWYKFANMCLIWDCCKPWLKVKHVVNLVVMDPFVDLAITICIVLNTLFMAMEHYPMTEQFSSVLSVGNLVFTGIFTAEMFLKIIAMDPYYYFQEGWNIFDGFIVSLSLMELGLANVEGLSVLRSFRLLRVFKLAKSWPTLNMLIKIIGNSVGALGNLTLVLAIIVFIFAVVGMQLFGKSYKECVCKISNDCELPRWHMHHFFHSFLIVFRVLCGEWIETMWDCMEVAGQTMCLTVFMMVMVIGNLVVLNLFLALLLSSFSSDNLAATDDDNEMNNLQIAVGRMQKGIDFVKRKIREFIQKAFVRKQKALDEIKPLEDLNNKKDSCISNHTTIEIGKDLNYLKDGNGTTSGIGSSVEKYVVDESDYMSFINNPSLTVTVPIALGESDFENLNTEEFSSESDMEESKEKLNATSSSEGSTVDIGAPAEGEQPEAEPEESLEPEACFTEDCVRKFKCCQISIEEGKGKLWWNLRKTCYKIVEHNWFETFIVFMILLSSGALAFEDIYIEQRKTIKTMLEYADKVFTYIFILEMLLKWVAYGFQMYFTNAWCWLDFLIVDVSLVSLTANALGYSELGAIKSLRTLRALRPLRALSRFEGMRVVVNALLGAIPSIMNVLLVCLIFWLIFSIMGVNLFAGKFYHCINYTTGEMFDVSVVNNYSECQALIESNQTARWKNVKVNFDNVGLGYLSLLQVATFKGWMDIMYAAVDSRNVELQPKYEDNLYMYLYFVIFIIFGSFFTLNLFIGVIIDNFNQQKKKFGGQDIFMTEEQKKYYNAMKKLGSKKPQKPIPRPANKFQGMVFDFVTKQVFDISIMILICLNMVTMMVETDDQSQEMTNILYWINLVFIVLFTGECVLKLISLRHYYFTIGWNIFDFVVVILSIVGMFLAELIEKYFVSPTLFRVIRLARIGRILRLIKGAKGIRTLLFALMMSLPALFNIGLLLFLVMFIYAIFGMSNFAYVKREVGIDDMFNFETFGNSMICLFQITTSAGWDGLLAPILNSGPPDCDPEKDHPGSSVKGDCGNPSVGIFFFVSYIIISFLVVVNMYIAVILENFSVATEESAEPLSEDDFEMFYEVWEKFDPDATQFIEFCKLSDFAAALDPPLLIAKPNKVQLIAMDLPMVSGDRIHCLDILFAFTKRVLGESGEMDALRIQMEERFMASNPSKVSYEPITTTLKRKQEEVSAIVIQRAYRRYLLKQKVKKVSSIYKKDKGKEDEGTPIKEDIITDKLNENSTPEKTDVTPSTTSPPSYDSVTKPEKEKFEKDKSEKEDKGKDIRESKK

[2] = rat; intravenous application; concentrations that do not affect general behaviour and motor function; cited from earlier work

SMILES | IC50 (sodium channel) [nM] | Ki [1] [nM] | inhibition at 10 µM (CYP3A4) [%] | melting point [°C] | block of the increase in [14C] guanidine influx (Nav1.9 and Nav1.7) | block of the increase in [14C] guanidine influx (Nav1.4) | block of the increase in [14C] guanidine influx (Nav1.8) | block of the increase in [14C] guanidine influx (Nav1.4 and 1.5) | block of the increase in [14C] guanidine influx (Nav1.2) | effect on ectopic activity and tactile allodynia [2]
O=C1N(Cc2ccccn2)c2cccc(-c3ccc(Oc4ccccc4)cc3)c2C12COc1cc3c(cc12)OCCO3 (centres unmarked) [Example 4.103, 4′-(4-phenoxyphenyl)-1′-(pyridin-2-ylmethyl)-2,3-dihydrospiro[furo[2,3-g][1,4]benzodioxine-8,3′-indol]-2′(1′H)-one] | 100 to 1000 | < 300 | < 50 | 196 to 199 | – | – | – | – | – | –
O=C1N(Cc2ccc(C(F)(F)F)o2)c2cc3c(cc2C12COc1cc4c(cc12)OCCO4)OCCO3 (centres unmarked) [Example 2.27, 6-((5-(trifluoromethyl)furan-2-yl)methyl)-2,3,3′,7′-tetrahydro-2′H-spiro[[1,4]dioxino[2,3-f]indole-8,8′-benzofuro[5,6-b][1,4]dioxin]-7(6H)-one] | 100 to 1000 | < 300 | > 50 | 176 to 178 | – | – | – | – | – | –
O=C1N(Cc2ccc(C(F)(F)F)o2)c2ccccc2[C@]12COc1cc3c(cc12)CCO3 [Example 5.7, (3S)-1′-{[5-(trifluoromethyl)furan-2-yl]methyl}-5,6-dihydrospiro[benzo[1,2-b:5,4-b′]difuran-3,3′-indol]-2′(1′H)-one] | 1 to 100 | < 300 | > 50 | 64 to 65 | – | – | – | – | – | –
O=C1N(Cc2ccccn2)c2ccccc2C12COc1cc3c(cc12)OCCCO3 (centres unmarked) [Example 4.55, 1′-(pyridin-2-ylmethyl)-3,4-dihydro-2H-spiro[furo[2,3-h][1,5]benzodioxepine-9,3′-indol]-2′(1′H)-one] | 100 to 1000 | > 300 | < 50 | 122 to 123 | – | – | – | – | – | –
O=C1N(Cc2ccc(C(F)(F)F)o2)c2ccccc2[C@]12COc1cc3c(cc12)OCCO3 [Example 4.50, (S)-1′-{[5-(trifluoromethyl)furan-2-yl]methyl}-2,3-dihydrospiro[furo[2,3-g][1,4]benzodioxine-8,3′-indol]-2′(1′H)-one] | 1 to 100 | < 300 | > 50 | 53 to 56 | – | – | – | – | – | –
COc1ncc(CN2C(=O)[C@@]3(COc4cc5c(cc43)OCCO5)c3ccccc32)cn1 [Example 5.17, (8S)-1′-[(2-methoxypyrimidin-5-yl)methyl]-2,3-dihydrospiro[furo[2,3-g][1,4]benzodioxine-8,3′-indol]-2′(1′H)-one] | 1 to 100 | < 300 | < 50 | 102 to 104 | – | – | – | – | – | –
O=C1Nc2cccc(-c3cnc4ccccc4c3)c2C12COc1cc3c(cc12)OCCO3 (centres unmarked) [Example 3.34, 4′-quinolin-3-yl-2,3-dihydrospiro[furo[2,3-g][1,4]benzodioxine-8,3′-indol]-2′(1′H)-one] | 100 to 1000 | > 300 | > 50 | 221 to 224 | – | – | – | – | – | –
NC1=N[C@H](O)[C@H]2[C@H]3O[C@]4(O)O[C@@H]([C@@H](O)[C@@]2(N1)[C@@H]4O)[C@]3(O)CO [TTX, tetrodotoxin] | – | – | – | – | background was partially blocked | completely blocked using TTX. | TTX partially blocked influx | partially blocked by TTX at 100 nM | guanidine influx was completely | –
COCCOCCN1C(=O)C2(COc3cc4c(cc32)OCCO4)c2ccccc21 (centres unmarked) [Example 9.20, 1′-[2-(2-methoxyethoxy)ethyl]-2,3-dihydrospiro[furo[2,3-g][1,4]benzodioxine-8,3′-indol]-2′(1′H)-one] | 1 to 100 | < 300 | < 50 | 90 to 91 | – | – | – | – | – | –
Cc1noc2cc3c(cc12)C1(CO3)C(=O)N(Cc2ccccn2)c2ccccc21 (centres unmarked) [Example 9.24, 3-methyl-1′-(pyridin-2-ylmethyl)spiro[furo[3,2-f][1,2]benzisoxazole-5,3′-indol]-2′(1′H)-one] | 1 to 100 | > 300 | > 50 | 142 to 143 | – | – | – | – | – | –
COc1cc2c(cc1C)C1(CO2)C(=O)Nc2ccccc21 (centres unmarked) [Example 3, 6-methoxy-5-methylspiro[1-benzofuran-3,3′-indol]-2′(1′H)-one] | 1000 to 10000 | > 300 | > 50 | > 250 | – | – | – | – | – | –
COc1cc2c(cc1C#N)C1(CO2)C(=O)Nc2ccccc21 (centres unmarked) [Example 3.29, 6-methoxy-2′-oxo-1′,2′-dihydrospiro[1-benzofuran-3,3′-indole]-5-carbonitrile] | 1000 to 10000 | > 300 | < 50 | 185 to 186 | – | – | – | – | – | –
O=C1N(Cc2ccccn2)c2ccccc2[C@]12COc1cc3c(cc12)OCCO3 [Example 4.51, (S)-1′-(pyridin-2-ylmethyl)-2,3-dihydrospiro[furo[2,3-g][1,4]benzodioxine-8,3′-indol]-2′(1′H)-one] | 1 to 100 | < 300 | < 50 | 144 to 146 | – | – | – | – | – | –
COCCOCCN1C(=O)C2(COc3cc4c(cc32)OCCO4)c2cc3c(cc21)OCCO3 (centres unmarked) [Example 2.65, 6-[2-(2-methoxyethoxy)ethyl]-2,2′,3,3′-tetrahydrospiro[1,4-dioxino[2,3-f]indole-8,8′-furo[2,3-g][1,4]benzodioxin]-7(6H)-one] | 1000 to 10000 | > 300 | < 50 | 146 to 148 | – | – | – | – | – | –
O=C1N(Cc2ccc(C(F)(F)F)o2)c2ccccc2C12COc1cc3c(cc12)OCCCO3 (centres unmarked) [Example 4.54, 1-{[5-(trifluoromethyl)furan-2-yl]methyl}-3,4-dihydro-2H-spiro[furo[2,3-h][1,5]benzodioxepine-9,3′-indol]-2′(1′H)-one] | 100 to 1000 | < 300 | > 50 | 162 to 164 | – | – | – | – | – | –
CCN(CC)CC(=O)Nc1c(C)cccc1C [lidocaine] | – | – | – | – | – | – | – | – | – | suppress the ectopic activity and reverse the tactile allodynia
O=C1N(Cc2ccc3nonc3c2)c2ccccc2C12COc1cc3c(cc12)CCO3 (centres unmarked) [Example 4.27, 1′-(2,1,3-benzoxadiazol-5-ylmethyl)-5,6-dihydrospiro[benzo[1,2-b:5,4-b′]difuran-3,3′-indol]-2′(1′H)-one] | 1 to 100 | > 300 | > 50 | 169 to 171 | – | – | – | – | – | –
O=C1N(Cc2ccc3c(c2)OCCO3)c2ccccc2C12COc1cc3c(cc12)OCCO3 (centres unmarked) [Example 4.48, 1-(2,3-dihydro-1,4-benzodioxin-6-ylmethyl)-2,3-dihydrospiro[furo[2,3-g][1,4]benzodioxine-8,3′-indol]-2′(1′H)-one] | 1 to 100 | < 300 | < 50 | 120 to 123 | – | – | – | – | – | –
O=C1N(Cc2ccc(O)cn2)c2ccccc2[C@]12COc1cc3c(cc12)OCCO3 [Example 1.13, (8S)-1′-[(5-hydroxypyridin-2-yl)methyl]-2,3-dihydrospiro[furo[2,3-g][1,4]benzodioxine-8,3′-indol]-2′(1′H)-one] | 100 to 1000 | < 300 | < 50 | 256 to 258 | – | – | – | – | – | –
